# According to patent US4056673A, “Phosphonoacetic acid derivatives of nucleosides” (Hoffmann-La Roche Inc., priority 1976, dated 1977):
# Where two headings read alike, the source gives them in different places.
# Assays:
# [1] = test system: herpes simplex type 1 virus; experiment: animal or person; assay type: in vivo, mice (Swiss albino); settings: intraperitoneally, -24, 0, +24 hr, mice, day 21, disodium salt; for ED50: Human alphaherpesvirus 1, ip, 504 h, read-out: PD50 (Protective Dose50)
# [2] = test system: herpes simplex type 2 virus; experiment: animal or person; assay type: in vivo, mice (Swiss albino); settings: Human alphaherpesvirus 2, ip, 504 h, intraperitoneally, -24, 0, +24 hr, mice, day 21, read-out: PD50 (Protective Dose50)
# pseudorabies virus = experiment: animal or person; assay type: in vivo, mice (Swiss albino); settings: Suid alphaherpesvirus 1, in Mus musculus, ip, 504 h, read-out: PD50 (Protective Dose50)
# KA-31 = settings: for activity against KA-31 solid tumor (in words): 14 ip treatments
# leukemia L1210 ascites = experiment: Leukemia L1210 ascites in mice; assay type: in vivo; settings: 100 mg/kg intraperitoneally, BDF1 mice
# Ehrlich carcinoma = settings: for C/T Index: Ehrlich carcinoma; for No. survivors/No. tested: mouse, in vivo, ip
# Marek's disease = settings: poultry; U.S. Pat. No. 3,836,650; cited from earlier work
# herpes simlpex infection = settings: oral and topical; Shipkowitz et al. 1973; cited from earlier work
molecule,measurement,setting,value
"Nc1ncnc2c1ncn2[C@H]1C[C@H](O)[C@@H](COP(=O)(O)CC(=O)O)O1 [2'-Deoxyadenosine-5'-monocarboxymethylphosphonate, monoacetonate]",ED50,[1],444 mg/kg
O=C(O)CP(=O)(O)OC[C@H]1O[C@@H](n2cc(I)c(=O)[nH]c2=O)C[C@@H]1O [5-Iodo-2'-deoxyuridine-5'-mono-carboxymethylphosphonate],ED50,[1],110 mg/kg
Nc1ncnc2c1ncn2[C@@H]1O[C@H](COP(=O)(O)CC(=O)O)[C@@H](O)[C@H]1O [Adenosine-5'-mono-carboxymethylphosphonate],ED50,[2],575 mg/kg
same,ED50,pseudorabies virus,386 mg/kg
same,ED50,[1],180 mg/kg
"O=C(O)CP(=O)(O)OC[C@H]1O[C@@H](n2cc(F)c(=O)[nH]c2=O)C[C@@H]1O [Compound A, 5-Fluoro-2-deoxyuridine-5'-mono-carboxymethylphosphonate]",activity against sarcoma 180 (in words),sarcoma 180; 12.5 mg/kg,inactive
same,activity against sarcoma 180 (in words),sarcoma 180; 25 mg/kg,active
same,activity against sarcoma 180 (in words),sarcoma 180; 50 mg/kg,active
same,C/T Index,"sarcoma 180; sarcoma 180, 12.5 mg/kg ip × 8",1.7
same,C/T Index,"sarcoma 180; sarcoma 180, 25 mg/kg ip × 8",2.2
same,C/T Index,"sarcoma 180; sarcoma 180, 50 mg/kg ip × 8",5.9
same,activity against KA-31 solid tumor (in words),KA-31; 6.25 mg/kg,not at 6.25 mg/kg
same,activity against KA-31 solid tumor (in words),KA-31; 12.5 mg/kg,activity was observed
same,activity against KA-31 solid tumor (in words),KA-31; 25 mg/kg,activity was observed
same,C/T Index,"KA-31; KA-31, 6.25 mg/kg ip × 14",1.8
same,C/T Index,"KA-31; KA-31, 12.5 mg/kg ip × 14",3.8
same,C/T Index,"KA-31; KA-31, 25 mg/kg ip × 14",13.8
same,activity against leukemia L1210 ascites (in words),leukemia L1210 ascites,inactive
same,activity against Ehrlich carcinoma (in words),Ehrlich carcinoma; 6.25 mg/kg,inactive
same,activity against Ehrlich carcinoma (in words),Ehrlich carcinoma; 12.5 mg/kg,active
same,activity against Ehrlich carcinoma (in words),Ehrlich carcinoma; 25 mg/kg,active
same,activity against Ehrlich carcinoma (in words),Ehrlich carcinoma; 50 mg/kg,active
same,C/T Index,Ehrlich carcinoma; 6.25 mg/kg ip × 8,1.5
same,C/T Index,Ehrlich carcinoma; 12.5 mg/kg ip × 8,2.4
same,C/T Index,Ehrlich carcinoma; 25 mg/kg ip × 8,3.4
same,C/T Index,Ehrlich carcinoma; 50 mg/kg ip × 8,12.1
same,No. survivors/No. tested,Ehrlich carcinoma; 6.25 mg/kg,16/16
same,No. survivors/No. tested,Ehrlich carcinoma; 12.5 mg/kg,24/24
same,No. survivors/No. tested,Ehrlich carcinoma; 25 mg/kg,23/24
same,No. survivors/No. tested,Ehrlich carcinoma; 50 mg/kg,21/24
Nc1nc2c(ncn2[C@@H]2O[C@H](COP(=O)(O)CC(=O)O)[C@@H](O)[C@H]2O)c(=O)[nH]1 [Guanosine-5'-mono-carboxymethylphosphonate],ED50,[1],144 mg/kg
O=C(O)CP(=O)(O)O [Phosphonoacetic acid],usefulness in combating Marek's disease (in words),Marek's disease,useful in combating Marek's disease in poultry
same,antiviral activity against herpes simplex infection (in words),herpes simlpex infection,antiviral agent exhibiting oral and topical activity against herpes simlpex infection
Cc1cn([C@H]2C[C@H](O)[C@@H](COP(=O)(O)CC(=O)O)O2)c(=O)[nH]c1=O [Thymidine-5'-mono-carboxymethylphosphonate],ED50,[1],185 mg/kg
O=C(O)CP(=O)(O)OC[C@H]1O[C@@H](n2ccc(=O)[nH]c2=O)[C@H](O)[C@@H]1O [Uridine-5'-mono-carboxymethylphosphonate],ED50,[1],127 mg/kg
"Adenosine-2'-(or 3'),5'-bis-carboxymethylphosphonate",PD50 (Protective Dose50),[1]; 30240 min,197 mg/kg
